Laboratory results taken from patent US10689376B2, “Substituted-3H-imidazo [4,5-c] pyridine and 1H-pyrrolo[2,3-c]pyridine series of novel ectonucleotide pyrophosphatase/phosphodiesterase-1 (ENPP1) and stimulator for interferon genes (STING) modulators as cancer immunotherapeutics” (Stingray Therapeutics, Inc., priority 2017, dated 2020).

Experiments:
[1] = biological target: Recombinant Human ENPP-2/Autotaxin Protein (Homo sapiens (Human), UniProt Q13822); assay: ENPP2 Inhibition Assay; assay type: biochemical; conditions: result in words
Description: 2. ENPP2 Inhibition Assay
Assay Buffer: 10 mM CaCl2, 5 mM MgCl2, 50 mM Tris, 0.02% Brij-35, pH 8.5
Substrate: 2 mM Bis(p-Nitrophenyl) Phosphate Sodium Salt (Sigma Cat # N3002)
Enzyme: 0.2 ng/μL Recombinant Human ENPP-2/Autotaxin Protein (R&D Cat #5255-EN)
96-well clear assay plates
(§1) An eight point serial dilution of drugs was prepared in 10× in assay buffer with the final assay concentrations starting at 10 μM, 3 μM, 1 μM, 0.3 μM . . . 0 μM. A dilution of DMSO was included as a control. The assay plate was set up as follows with each well in duplicate: 15 μL assay buffer+10 μL, ENPP1 inhibitor or DMSO+50 μL Substrate+25 μL Enzyme. Both the enzyme and substrate were added to opposite sides of the well to ensure that there was no interaction until all wells had both components. The plate was then centrifuged gently for 10 seconds, followed by an incubation at 37° C. for 45 minutes. The reaction was quantified by measuring absorbance at 405 nm using the Envision.
(§2) IC50 values are determined using GraphPad Prism 5 software. The data were entered as an X-Y plot into the software as percent inhibition for each concentration of the drug. The concentration values of the drug were log transformed and the nonlinear regression was carried out using the “sigmoidal dose-response (variable slope)” option within the GraphPad software to model the data and calculate IC50 values. The IC50 values reported are the concentration of drug at which 50% inhibition was reached.

[2] = biological target: T1, Recombinant Human ENPP-1 Protein (Homo sapiens (Human), UniProt P22413); assay: ENPP1 Inhibition Assay; assay type: biochemical; conditions: for inhibiting the activity of ENPP1 (FIG. 1): result in words; for IC50: substrate thymidine 5′-monophosphate p-nitrophenol ester, absorbance at 405 nm
T1 sequence (P22413 whole entry): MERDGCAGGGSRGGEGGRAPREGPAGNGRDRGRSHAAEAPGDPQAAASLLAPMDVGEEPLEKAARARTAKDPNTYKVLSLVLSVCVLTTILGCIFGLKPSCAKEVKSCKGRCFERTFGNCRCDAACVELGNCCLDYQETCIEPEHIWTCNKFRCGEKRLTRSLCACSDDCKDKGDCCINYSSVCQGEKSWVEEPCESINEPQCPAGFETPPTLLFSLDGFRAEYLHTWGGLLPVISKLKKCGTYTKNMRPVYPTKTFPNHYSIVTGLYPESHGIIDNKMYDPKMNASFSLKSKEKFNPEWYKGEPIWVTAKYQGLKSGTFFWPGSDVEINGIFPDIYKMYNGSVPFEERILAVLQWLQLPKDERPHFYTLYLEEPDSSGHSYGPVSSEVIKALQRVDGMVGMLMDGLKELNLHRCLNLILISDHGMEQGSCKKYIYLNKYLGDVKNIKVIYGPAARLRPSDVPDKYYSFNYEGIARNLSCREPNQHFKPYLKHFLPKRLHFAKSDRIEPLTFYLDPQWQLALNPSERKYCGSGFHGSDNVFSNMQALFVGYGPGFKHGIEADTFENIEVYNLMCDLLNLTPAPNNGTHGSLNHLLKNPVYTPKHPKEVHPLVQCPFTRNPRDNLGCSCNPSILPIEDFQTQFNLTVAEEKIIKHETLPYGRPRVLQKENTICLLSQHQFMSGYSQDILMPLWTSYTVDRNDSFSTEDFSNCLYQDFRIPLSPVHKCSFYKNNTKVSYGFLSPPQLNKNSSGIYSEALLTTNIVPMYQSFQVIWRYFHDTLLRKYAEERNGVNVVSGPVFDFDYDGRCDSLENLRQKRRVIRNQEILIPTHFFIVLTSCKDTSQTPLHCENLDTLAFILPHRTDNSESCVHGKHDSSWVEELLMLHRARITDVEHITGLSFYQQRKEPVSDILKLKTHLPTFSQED
Description: 1. ENPP1 Inhibition Assay
Materials: • Assay Buffer: 1 mM CaCl2, 0.2 mM ZnCl2, 50 mM Tris, pH 9.0 • Substrate: 8 mM Thymidine 5′-monophosphate p-nitrophenol ester sodium salt (Sigma Cat # T4510) • Enzyme: 5 ng/μL Recombinant Human ENPP-1 Protein (R&D Cat #6136-EN-010) DMSO • 96-well clear assay plates
as §1, with “81” for “15”, “μL” for “μL,”, “DMSO+5” for “DMSO+50”, “Substrate+4” for “Substrate+25”
as §2

Saos-2 Cells = assay: ENPP1 Mineralization Assay; assay type: cell-based; set-up: key to ENPP1 Mineral assay (50% inhibition at 50 μM): +: active at 50 μM concentration; NA: Not Active; conditions: for ENPP1 Mineral assay (50% inhibition at 50 μM): Alizarin Red; for inhibiting ENPP1 ability to produce mineralized nodules (FIG. 4): result in words
Description: 4. ENPP1 Mineralization Assay
Saos-2 Cells (ATCC CAT # HTB-85)
24-well Tissue Culture Plate
Ascorbic Acid, 5 mg/mL (100×)
β-Glycerophosphate, 1M (100×)
Phosphate Buffered Saline
Alizarin Red, 40 mM pH 4.2
Dye Extraction Reagent, 10% Methanol+10% Acetic Acid
Saos-2 cells were plated at a density of 1.5×10^6 cells/well and allowed to grow to 100% confluency over the following 1-2 days. Once completely confluent, the media was replaced with fresh media supplemented with 1× ascorbic acid, 1× β-glycerophosphate, and varying concentrations of ENPP1 inhibitor (if applicable). The addition of the mineralization components was considered Day 1, On Day 3, the media was gently aspirated with no wash followed by the addition of fresh media, mineralization components, and ENPP1 inhibitor (if applicable). On day 5, the media was gently aspirated and the cells were washed twice with PBS. The cells were then fixed with ice cold 70% ethanol for 1 hour at 4° C. Cells were washed once with PBS and stained with Alizarin Red for 30 minutes at room temperature with gentle rotation. Stained cells were washed three times with water for 10 minutes at room temperature with gentle rotation. After imaging cells, dye extraction reagent was added to each well and incubated for 30 minutes at room temperature. Alizarin red was quantified by measuring absorbance at a wavelength of 405 nm using the Envision.

[3] = biological target: T1, Recombinant Human ENPP-1 Protein; assay: ENPP1 Thermal Shift Assay; assay type: binding
Description: 3. ENPP1 Thermal Shift Assay Materials: Recombinant Human ENPP-1 Protein (R&D Cat #6136-EN-010) Assay Buffer (1 mM CaCl2, 0.2 mM ZnCl2, 50 mM Tris, pH 9.0) 5000× SYPRO Orange (ThermoFisher cat # S6651) 384-well PCR Plates Methods: Each drug was prepared as a 10× solution in the assay buffer and SYPRO Orange was diluted to 10× concentration in water. Wells were set up in duplicate in a 384-well PCR plate as follows: 14 μL assay buffer, 2 μL ENPP1 Inhibitor or DMSO, 2 μL (0.5 μg) ENPP1 protein. Each well was mixed and incubated on ice for 5 minutes. Post incubation, 2 μL of SYPRO Orange was mixed into each well and followed by a gentle centrifugation. The protein melt reaction was run using ViiA7 software with temperatures beginning at 25° C. and increasing by 0.05° C./s to the maximum temperature of 99° C.

Structure (SMILES) | inhibiting the activity of ENPP2 (FIGS. 2A and 2B) [1] | selectivity ENPP1 versus ENPP2 [1] | inhibiting the activity of ENPP1 (FIG. 1) [2] | IC50 [2] | ENPP1 Mineral assay (50% inhibition at 50 μM) (Saos-2 Cells) | inhibiting ENPP1 ability to produce mineralized nodules (FIG. 4) (Saos-2 Cells) | Tm (midpoint of the protein unfolding transition) of ENPP1 in the presence of compound ([3]; Tm of ENPP1 alone 64.2° C.) | stability of recombinant ENPP1 protein (FIG. 3) ([3]; result in words)
COc1ccc(NC(=O)CSc2nc3cc(Cl)ncc3[nH]2)cc1O [Compound 21, 2-((6-chloro-3H-imidazo[4,5-c]pyridin-2-yl)thio)-N-(3-hydroxy-4-methoxyphenyl)acetamide] | ineffective in inhibiting the activity of ENPP2 | selective at inhibiting ENPP1 but not ENPP2 | effective in inhibiting the activity of ENPP1 | 86 nM | + | effective in inhibiting ENPP1 ability to produce mineralized nodules | 67.84 °C | effective in increasing the stability of recombinant ENPP1 protein
COc1cc(NC(=O)CSc2nc3cc(Cl)ncc3[nH]2)ccc1O [Compound 22, 2-((6-chloro-3H-imidazo[4,5-c]pyridin-2-yl)thio)-N-(4-hydroxy-3-methoxyphenyl)acetamide] |  |  |  | 1160 nM | + |  |  | 
COc1ccc(NC(=O)CSc2nc3cnc(C(F)(F)F)cc3[nH]2)cc1O [Compound 31, N-(3-hydroxy-4-methoxyphenyl)-2-((6-(trifluoromethyl)-1H-imidazo[4,5-c]pyridin-2-yl)thio)acetamide] |  |  |  | 181 nM | + |  |  | 
O=C(CSc1nc2cnc(Cl)cc2[nH]1)Nc1ccc(F)c(O)c1 [Compound 37, 2-((6-chloro-1H-imidazo[4,5-c]pyridin-2-yl)thio)-N-(4-fluoro-3-hydroxyphenyl)acetamide] |  |  |  | 170 nM | + |  |  | 
COc1ccc(NC(=O)CSc2nc3cnc(C(F)(F)F)cc3[nH]2)cc1F [Compound 38, N-(3-fluoro-4-methoxyphenyl)-2-((6-(trifluoromethyl)-1H-imidazo[4,5-c]pyridin-2-yl)thio)acetamide] |  |  |  | 487 nM | + |  |  | 
O=C(CSc1nc2cnc(C(F)(F)F)cc2[nH]1)Nc1ccc(F)c(O)c1 [Compound 45, N-(4-fluoro-3-hydroxyphenyl)-2-((6-(trifluoromethyl)-1H-imidazo[4,5-c]pyridin-2-yl)thio)acetamide] |  |  |  | 651 nM | + |  |  | 
COc1ccc(NC(=O)CSc2nc3cc(C#N)ncc3[nH]2)cc1OC [Compound 68, 2-((6-Cyano-3H-imidazo[4,5-c]pyridin-2-yl)thio)-N-(3,4-dimethoxyphenyl)acetamide] |  |  | effective in inhibiting the activity of ENPP1 | 114 nM | + | effective in inhibiting ENPP1 ability to produce mineralized nodules |  | 
COc1ccc(NC(=O)CSc2nc3c(C)c(C#N)ncc3[nH]2)cc1O [Compound 78, 2-((6-Cyano-7-methyl-3H-imidazo[4,5-c]pyridin-2-yl)thio)-N-(3-hydroxy-4-methoxyphenyl)acetamide] | ineffective in inhibiting the activity of ENPP2 | selective at inhibiting ENPP1 but not ENPP2 | effective in inhibiting the activity of ENPP1 | 79 nM | + |  |  | 
